In patent US9540325B2, “N1-cyclic amine-N5-substituted phenyl biguanide derivatives, methods of preparing the same and pharmaceutical composition comprising the same” (Immunomet Therapeutics, Inc., priority 2011, dated 2017):

How the values were obtained:
AMPKα = assay: Measurement of AMPK activation effect (AMPKα Thr172 phosphorylation immunoassay) in MCF7 cells; type: cell-based, human; conditions: 24 hours; for AMPK activation effect at 10 μM (%) / AMPK activation effect at 50 μM (%): relative to untreated cells; for AMPK activation effect AC150: concentration at which AMPK activation reached 150%
Method in brief: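 MCF7 cells in DMEM/10% FBS were treated 24 h with derivatives at 5, 10 and 50 μM (metformin hydrochloride control, 0.05–10 mM). AMPKα Thr172 phosphorylation was measured by immunoassay on 20 μg lysate. AC150 (concentration giving 150% activation) came from concentration–response curves, with activation also reported at fixed concentrations.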

[1] = Solubility in water of hydrochloride and acetate salts; type: physicochemical; conditions: room temperature
Protocol: The solubilities in water of the hydrochlorides prepared in Examples 26, 27, 32, 33, 48, 49, 53 and 54, and the solubilities in water of the acetates prepared in Examples 70 to 77, were compared.
The experimental conditions and methods are described, as follows.
1) 1 ml of distilled water is added to a container including 5 mg of salt at room temperature.
2) The resulting mixture is stirred for 10 minutes, and then kept at room temperature for 1 hour.
3) Undissolved residual salt is recovered and weighed.
4) The ratio of the amount of the recovered salt and the amount of the dissolved salt is calculated.
5) Operations 1) to 4) are repeatedly performed with increasing amount (i.e., 10, 15, 20, 25 and 30 mg) of salt.
The experimental procedures were performed for each of the hydrochlorides of Examples 26, 27, 32, 33, 48, 49, 53 and 54 and the acetates of Examples 70 to 77. The comparative solubilities obtained using the hydrochlorides of Examples 26, 27, 32, 33, 48, 49, 53 and 54 and the acetates of Examples 70 to 77 are listed in the following Table 1.

HCT116 cells = assay: Measurement of effect of inhibiting cancer cell proliferation (MTT); type: cell-based, human; conditions: for inhibition at 100 µM: HCT-116, 100 μM, read-out: Cell Growth Inhibition (%) at 100 μM
Method in brief: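 HCT116 cells (~5,000/well, DMEM with 10% FBS) treated 48 h with compound at 0.39–100 μM, metformin hydrochloride control at 0.1–25 mM. Viability by MTT (3 h, formazan in DMSO, A560) relative to untreated wells; GIC50 from the viability curve, also viability at 100 μM.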

[2] = content 5 mg/1 ml distilled water
[3] = content 10 mg/1 ml distilled water
[4] = content 15 mg/1 ml distilled water
[5] = content 20 mg/1 ml distilled water
[6] = content 25 mg/1 ml distilled water
[7] = content 30 mg/1 ml distilled water

Solubility in water (%), acetate salt [1, 2]	Solubility in water (%), acetate salt [1, 3]	Solubility in water (%), acetate salt [1, 4]	Solubility in water (%), acetate salt [1, 5]	Solubility in water (%), acetate salt [1, 6]	Solubility in water (%), acetate salt [1, 7]	Solubility in water (%), hydrochloride salt [1, 2]	GI50 (HCT116 cells; Homo sapiens, HCT-116, 48 h)	melting point	GI50 (HCT116 cells; 48 hours)	Structure (SMILES)	AMPK activation effect at 10 μM (%) (AMPKα)	AMPK activation effect at 50 μM (%) (AMPKα)	AMPK activation effect AC150 (AMPKα)	inhibition at 100 µM (HCT116 cells; Homo sapiens, 48 hours)
100%	100%	100%	100%	100%	50%	–	–	–	–	N=C(NC(=N)N1CCCC1)Nc1ccc(OC(F)(F)F)cc1 [Example 72, N1-pyrrolidine-N5-(4-trifluoromethoxy)phenyl biguanide acetate]	186%	938%	4.6 µM	–
–	–	–	–	–	–	50%	7.9 µM	277.3 °C	–	Cl.N=C(NC(=N)N1CCCCC1)Nc1ccc(OC(F)(F)F)cc1 [Example 33, N1-piperidine-N5-(4-trifluoromethoxy)phenyl biguanide hydrochloride]	538%	–	1.4 µM	97.9%
100%	100%	100%	100%	100%	50%	–	–	–	5.2 µM	N=C(NC(=N)N1CCCC1)Nc1ccc(C(F)(F)F)cc1 [Example 70, N1-pyrrolidine-N5-(4-trifluoromethyl)phenyl biguanide acetate]	554%	–	2.0 µM	–
100%	100%	100%	20%	–	–	–	–	–	–	N=C(NC(=N)N1CCCCC1)Nc1ccc(OC(F)(F)F)cc1 [Example 73, N1-piperidine-N5-(4-trifluoromethoxy)phenyl biguanide acetate]	270%	747%	0.3 µM	–
100%	50%	–	–	–	–	–	–	–	–	N=C(NC(=N)N1CCCCC1)Nc1ccc(C(F)(F)F)cc1 [Example 71, N1-piperidine-N5-(4-trifluoromethyl)phenyl biguanide acetate]	313%	–	2.3 µM	–
–	–	–	–	–	–	50%	23.6 µM	–	–	Cl.N=C(NC(=N)N1CCCC1)Nc1ccc(OC(F)(F)F)cc1 [Example 32, N1-pyrrolidine-N5-(4-trifluoromethoxy)phenyl biguanide hydrochloride]	204%	680%	5.1 µM	97.6%

The next lines start with the molecule.

Structure (SMILES)	Solubility in water (%), acetate salt [1, 2]	Solubility in water (%), acetate salt [1, 3]	Solubility in water (%), acetate salt [1, 4]	Solubility in water (%), acetate salt [1, 5]	Solubility in water (%), acetate salt [1, 6]	Solubility in water (%), acetate salt [1, 7]	Solubility in water (%), hydrochloride salt [1, 2]	GI50 (HCT116 cells; Homo sapiens, HCT-116, 48 h)	melting point	GI50 (HCT116 cells; 48 hours)	AMPK activation effect at 10 μM (%) (AMPKα)	AMPK activation effect at 50 μM (%) (AMPKα)	AMPK activation effect AC150 (AMPKα)	inhibition at 100 µM (HCT116 cells; Homo sapiens, 48 hours)
N=C(NC(=N)N1CCCC1)Nc1ccc(C(F)(F)F)c(F)c1 [Example 74, N1-pyrrolidine-N5-(3-fluoro-4-trifluoromethyl)phenyl biguanide acetate]	100%	100%	100%	50%	–	–	–	–	–	–	461%	–	3.4 µM	–
N=C(NC(=N)N1CCCCC1)Nc1ccc(C(F)(F)F)c(F)c1 [Example 75, N1-piperidine-N5-(3-fluoro-4-trifluoromethyl)phenyl biguanide acetate]	70%	–	–	–	–	–	–	–	–	–	710%	–	2.0 µM	–
N=C(NC(=N)N1CCCC1)Nc1ccc(OC(F)(F)F)c(F)c1 [Example 76, N1-pyrrolidine-N5-(3-fluoro-4-trifluoromethoxy)phenyl biguanide acetate]	100%	100%	70%	–	–	–	–	–	–	–	341%	–	1.3 µM	–
Cl.N=C(NC(=N)N1CCCC1)Nc1ccc(C(F)(F)F)c(F)c1 [Example 48, N1-pyrrolidine-N5-(3-fluoro-4-trifluoromethyl)phenyl biguanide hydrochloride]	–	–	–	–	–	–	80%	9.3 µM	253 to 254 °C	–	299%	–	2.5 µM	101%
Cl.N=C(NC(=N)N1CCCC1)Nc1cc(Br)cc(OC(F)(F)F)c1 [Example 66, N1-pyrrolidine-N5-(3-bromo-5-trifluoromethoxy)phenyl biguanide hydrochloride]	–	–	–	–	–	–	–	6.8 µM	241 to 242 °C	–	521%	–	5.0 µM	97.6%
Cl.N=C(NC(=N)N1CCCC1)Nc1cccc(Cl)c1 [Example 19, N1-pyrrolidine-N5-(3-chloro)phenyl biguanide hydrochloride]	–	–	–	–	–	–	–	55.9 µM	170 to 172 °C	–	176%	586%	4.4 µM	74%
N=C(NC(=N)N1CCCCC1)Nc1ccc(OC(F)(F)F)c(F)c1 [Example 77, N1-piperidine-N5-(3-fluoro-4-trifluoromethoxy)phenyl biguanide acetate]	100%	50%	–	–	–	–	–	–	–	–	–	–	–	–
CC(=O)Nc1cccc(NC(=N)NC(=N)N2CCCCC2)c1.Cl [Example 39, N1-piperidine-N5-(3-acetamide)phenyl biguanide hydrochloride]	–	–	–	–	–	–	–	> 100 µM	265 to 267 °C	–	100%	145%	>50 µM	25.5%
Cl.N=C(NC(=N)N1CCCCC1)Nc1cccc(F)c1 [Example 16, N1-piperidine-N5-(3-fluoro)phenyl biguanide hydrochloride]	–	–	–	–	–	–	–	72.4 µM	201 to 202 °C	–	–	378%	9.9 µM	67.2%
Cl.N=C(NC(=N)N1CCCC1)Nc1ccc(Cl)c(Cl)c1 [Example 63, N1-pyrrolidine-N5-(3,4-dichloro)phenyl biguanide hydrochloride]	–	–	–	–	–	–	–	8.7 µM	282 to 283 °C	–	261%	–	6.2 µM	97.6%
Cl.N=C(NC(=N)N1CCCCC1)Nc1cc(F)cc(F)c1 [Example 60, N1-piperidine-N5-(3,5-difluoro)phenyl biguanide hydrochloride]	–	–	–	–	–	–	–	48.2 µM	243 to 244 °C	–	144%	576%	8.2 µM	97.6%
Cl.N=C(NC(=N)N1CCCCC1)Nc1ccc(F)cc1F [Example 58, N1-piperidine-N5-(2,4-difluoro)phenyl biguanide hydrochloride]	–	–	–	–	–	–	–	> 100 µM	256 to 257 °C	–	131%	265%	16.5 µM	37.4%
